Measurements from US10428080B2, “TBK/IKK inhibitor compounds and uses thereof” (Merck Patent GmbH, priority 2015, dated 2019).
Counter-ions that a name gives are not always drawn. Like-named read-outs stand apart in the source and are kept apart here.

Assays:
TBK1 = biological target: T1, TBK1 (Homo sapiens, UniProt Q9UHD2); assay: TBK Biochemical Assay; details: read-out: TBK1 IC50
T1 sequence (Q9UHD2 1-729): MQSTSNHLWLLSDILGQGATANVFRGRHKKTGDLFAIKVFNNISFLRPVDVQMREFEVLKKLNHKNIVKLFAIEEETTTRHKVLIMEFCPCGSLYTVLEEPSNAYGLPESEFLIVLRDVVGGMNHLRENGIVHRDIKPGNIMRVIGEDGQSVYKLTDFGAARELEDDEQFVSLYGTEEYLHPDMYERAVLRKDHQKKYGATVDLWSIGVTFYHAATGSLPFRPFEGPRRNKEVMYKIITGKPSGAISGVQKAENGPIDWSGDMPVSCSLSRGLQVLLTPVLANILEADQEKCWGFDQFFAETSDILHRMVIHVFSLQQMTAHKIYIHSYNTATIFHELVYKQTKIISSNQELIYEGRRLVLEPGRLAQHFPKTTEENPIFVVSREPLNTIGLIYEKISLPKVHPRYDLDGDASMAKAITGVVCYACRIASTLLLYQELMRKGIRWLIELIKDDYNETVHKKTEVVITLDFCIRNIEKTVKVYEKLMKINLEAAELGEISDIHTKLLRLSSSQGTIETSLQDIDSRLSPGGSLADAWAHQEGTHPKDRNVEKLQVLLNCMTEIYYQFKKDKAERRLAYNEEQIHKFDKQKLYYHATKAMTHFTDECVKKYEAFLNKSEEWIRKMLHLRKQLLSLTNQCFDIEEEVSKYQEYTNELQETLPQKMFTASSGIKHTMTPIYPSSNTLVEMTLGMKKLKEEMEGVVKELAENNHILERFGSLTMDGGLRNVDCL
Method in brief: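 TBK1 enzyme and substrate incubated with compounds (10-point 1:4 dilution, top 30 uM final, 1% DMSO) for 90 min at 25° C, then stopped. Substrate/product peaks read by microfluidic mobility-shift (Caliper LabChip); 10 uM staurosporine as full-inhibition control.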

IKKε = biological target: T2, IKKε (Homo sapiens, UniProt Q14164); assay: IKKe Biochemical Assay; details: read-out: IKKε IC50
T2 sequence (Q14164 1-716): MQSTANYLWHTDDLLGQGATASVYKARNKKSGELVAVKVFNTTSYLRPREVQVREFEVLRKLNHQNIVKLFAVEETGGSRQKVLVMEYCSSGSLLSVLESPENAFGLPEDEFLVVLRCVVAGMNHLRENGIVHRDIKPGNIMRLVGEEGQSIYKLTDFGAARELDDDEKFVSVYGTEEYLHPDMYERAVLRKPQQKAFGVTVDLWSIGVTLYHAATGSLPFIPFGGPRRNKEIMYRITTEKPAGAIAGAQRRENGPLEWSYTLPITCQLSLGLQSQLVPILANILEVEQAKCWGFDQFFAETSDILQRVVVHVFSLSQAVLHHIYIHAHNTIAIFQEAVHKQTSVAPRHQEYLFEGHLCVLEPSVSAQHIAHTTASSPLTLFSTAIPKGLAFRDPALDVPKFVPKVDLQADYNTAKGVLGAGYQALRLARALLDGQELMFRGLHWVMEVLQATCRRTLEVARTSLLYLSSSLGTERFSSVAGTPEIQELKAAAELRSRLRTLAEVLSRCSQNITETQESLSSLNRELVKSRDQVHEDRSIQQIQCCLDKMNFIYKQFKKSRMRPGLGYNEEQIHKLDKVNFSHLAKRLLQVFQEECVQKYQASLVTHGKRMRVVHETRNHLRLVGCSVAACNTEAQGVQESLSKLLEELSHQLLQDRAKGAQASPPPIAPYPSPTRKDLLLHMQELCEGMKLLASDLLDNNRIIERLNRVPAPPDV
Method in brief: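 Recombinant IKKε and substrate were incubated with compound (10-point 1:4 series, top 30 uM final, 1% DMSO) for 90 min at 25° C, then stopped. Substrate-to-product conversion was read by LabChip microfluidic mobility shift; 10 uM staurosporine served as full-inhibition wells.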

[1] = test system: phosphorylation of the IRF-3 protein in MDA-MB-468 cells; assay: pIRF3 immunocytochemistry cell based assay; details: MDA-MB-468 cells, Poly(I:C) stimulation, read-out: pIRF3 IC50
Method in brief: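 MDA-MB-468 cells got compounds (10-point, 3-fold from 10 uM) for 1 h at 37 °C, then 10 ug/ml Poly(I:C) for 2 h. Fixed, permeabilized cells were immunostained for pIRF3 with AlexaFluor488 and counterstained with PI. % phosphorylation was read by laser scanning cytometry, and IC50 curves were fitted.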

| SMILES | IC50 (TBK1) [nM] | IC50 (IKKε) [nM] | IC50 ([1]; Homo sapiens) [nM] | IC50 [1] [nM] |
| --- | --- | --- | --- | --- |
| COc1cc(C(=O)N2CC3NCCC32)ccc1-c1cc2nccc(-c3ccc(OC4CCOCC4)c(C#N)c3)c2o1 (stereo not drawn) [Compound 55, 5-{2-[4-(2,6-Diaza-bicyclo[3.2.0]heptane-6-carbonyl)-2-methoxy-phenyl]-furo[3,2-b]pyridin-7-yl}-2-(tetrahydro-pyran-4-yloxy)-benzonitrile hydrochloride] | < 100 | < 100 | < 100 | – |
| COc1cc(C(=O)NC2CCOCC2O)ccc1-c1cc2nccc(-c3ccc(OC4CCOCC4)c(C#N)c3)c2o1 (stereo not drawn) [Compound 11, 4-{7-[3-Cyano-4-(tetrahydro-pyran-4-yloxy)-phenyl]-furo[3,2-b]pyridin-2-yl}-N-(3-hydroxy-tetrahydro-pyran-4-yl)-3-methoxy-benzamide] | < 100 | < 100 | 100 to 1000 | – |
| COc1cc(C(=O)NC2CN3CCC2CC3)ccc1-c1cc2nccc(-c3ccc(N4CCC(F)C4)c(C#N)c3)c2o1 (stereo not drawn) [Compound 87, N-(1-Aza-bicyclo[2.2.2]oct-3-yl)-4-{7-[3-cyano-4-(3-fluoro-pyrrolidin-1-yl)-phenyl]-furo[3,2-b]pyridin-2-yl}-3-methoxy-benzamide] | < 100 | < 100 | 100 to 1000 | – |
| COc1cc(C(=O)N2CCCCN2)ccc1-c1cc2nccc(-c3ccc(OC4CCOCC4)c(C#N)c3)c2o1 [Compound 482, 5-{2-[2-Methoxy-4-(tetrahydro-pyridazine-1-carbonyl)-phenyl]-furo[3,2-b]pyridin-7-yl}-2-(tetrahydro-pyran-4-yloxy)-benzonitrile] | < 100 | < 100 | 100 to 1000 | – |
| CN(C)C(=O)c1cccc(-c2cc3nccc(-c4ccc(OC5CCOCC5)c(C#N)c4)c3o2)c1 [Compound 123] | < 100 | < 100 | 1000 to 5000 | – |
| COc1cc(C(=O)N2CC[C@@H](N(C)C)C2)cnc1-c1cc2nccc(-c3ccc(N4CC[C@H](F)C4)c(C#N)c3)c2o1 [Compound 455, 5-[2-(5-[[(3R)-3-(dimethylamino)pyrrolidin-1-yl]carbonyl]-3-methoxypyridin-2-yl) (S)-furo[3,2-b]pyridin-7-yl]-2-(3-fluoropyrrolidin-1-yl)benzonitrile] | < 100 | < 100 | < 100 | – |
| COc1cc(C(=O)N(C)C)cnc1-c1cc2nccc(-c3ccc(OC4CCN(C(C)C)C4)c(C#N)c3)c2o1 (stereo not drawn) [Compound 427, 6-(7-(3-cyano-4-(1-isopropylpyrrolidin-3-yloxy)phenyl)furo[3,2-b]pyridin-2-yl)-5-methoxy-N,N-dimethylnicotinamide] | 100 to 1000 | 100 to 1000 | 100 to 1000 | – |
| CN(C)C(=O)c1ccc(-c2cc3nccc(-c4ccc(N5CC[C@H](F)C5)c(C#N)c4)c3o2)cc1 [Compound 106, 4-{7-[3-Cyano-4-((S)-3-fluoro-pyrrolidin-1-yl)-phenyl]-furo[3,2-b]pyridin-2-yl}-N,N-dimethyl-benzamide] | < 100 | < 100 | 100 to 1000 | – |
| COc1cc(C(=O)O)ccc1-c1cc2nccc(-c3ccc(OC4CCOCC4)c(C#N)c3)c2o1 [Compound 21] | < 100 | < 100 | 1000 to 5000 | – |
| COc1cc(C(=O)NC2CN3CCC2CC3)cnc1-c1cc2nccc(-c3ccc(N4CC[C@H](F)C4)c(C#N)c3)c2o1 (stereo partly drawn) [Compound 441, N—(R)-1-Aza-bicyclo[2.20.2]oct-3-yl-6-{7-[3-cyano-4-((S)-3-fluoro-pyrrolidin-1-yl)-phenyl]-furo[3,2-b]pyridin-2-yl}-5-methoxy-nicotinamide] | < 100 | < 100 | – | 100 to 1000 |
| COc1cc(C(=O)N(C)C)ncc1-c1cc2nccc(-c3ccc(OC4CCN(C)C4)c(C#N)c3)c2o1 (stereo not drawn) [Compound 430, 5-(7-[3-cyano-4-[(1-methylpyrrolidin-3-yl)oxy]phenyl]furo[3,2-b]pyridin-2-yl)-4-methoxy-N,N-dimethylpyridine-2-carboxamide] | 100 to 1000 | 100 to 1000 | 100 to 1000 | – |
| N#Cc1cc(-c2ccnc3cc(-c4ccc(C(=O)N[C@H]5CNCC[C@@H]5F)cc4)oc23)ccc1OC1CCOCC1 [Compound 135, 4-{7-[3-Cyano-4-(tetrahydro-pyran-4-yloxy)-phenyl]-furo[3,2-b]pyridin-2-yl}-N-((3S,4S)-4-fluoro-piperidin-3-yl)-benzamide] | < 100 | < 100 | 100 to 1000 | – |
| COc1cc(C(=O)N2CCC3(CCNC3=O)CC2)ccc1-c1cc2nccc(-c3ccc(NC4CCOCC4)c(C#N)c3)c2o1 [Compound 52, 5-{2-[2-Methoxy-4-(1-oxo-2,8-diaza-spiro[4.5]decane-8-carbonyl)-phenyl]-furo[3,2-b]pyridin-7-yl}-2-(tetrahydro-pyran-4-ylamino)-benzonitrile] | < 100 | < 100 | 100 to 1000 | – |
| COc1cc(C(=O)NC2CN3CCC2CC3)ncc1-c1cc2nccc(-c3ccc(N4CCC(F)C4)c(C#N)c3)c2o1 (stereo not drawn) [Compound 443, N-[1-azabicyclo[2.2.2]octan-3-yl]-5-[7-[3-cyano-4-(3-fluoropyrrolidin-1-yl)phenyl]furo[3,2-b]pyridin-2-yl]-4-methoxypyridine-2-carboxamide] | < 100 | < 100 | 100 to 1000 | – |
| COc1cc(C(=O)NC2CN3CCC2CC3)cnc1-c1cc2nccc(-c3ccc(N4CC[C@@H](F)C4)c(C#N)c3)c2o1 (stereo partly drawn) [Compound 442, N—(R)-1-Aza-bicyclo[2.20.2]oct-3-yl-6-{7-[3-cyano-4-((R)-3-fluoro-pyrrolidin-1-yl)-phenyl]-furo[3,2-b]pyridin-2-yl}-5-methoxy-nicotinamide] | < 100 | < 100 | – | 100 to 1000 |
| COc1cc(C(=O)N2CCC(F)(F)C2)ccc1-c1cc2nccc(-c3ccc(OC4CCOCC4)c(C#N)c3)c2o1 [Compound 45, 5-{2-[4-(3,3-Difluoro-pyrrolidine-1-carbonyl)-2-methoxy-phenyl]-furo[3,2-b]pyridin-7-yl}-2-(tetrahydro-pyran-4-yloxy)-benzonitrile] | < 100 | < 100 | 100 to 1000 | – |
| COc1cc(C(=O)N(C)C)nnc1-c1cc2nccc(-c3ccc(OC4CCOCC4)c(C#N)c3)c2o1 [Compound 395, 6-[7-[3-cyano-4-(oxan-4-yloxy)phenyl]furo[3,2-b]pyridin-2-yl]-5-methoxy-N,N-dimethylpyridazine-3-carboxamide] | < 100 | < 100 | 100 to 1000 | – |
| COc1cc(C(=O)N(C)CCO)cnc1-c1cc2nccc(-c3ccc(OC4CCOCC4)c(C#N)c3)c2o1 [Compound 328, 6-[7-[3-cyano-4-(oxan-4-yloxy)phenyl]furo[3,2-b]pyridin-2-yl]-N-(2-hydroxyethyl)-5-methoxy-N-methylpyridine-3-carboxamide] | < 100 | < 100 | < 100 | – |
| COc1cc(C(=O)N(C)C)ccc1-c1cc2nccc(-c3ccc(OC4CN(C)C4)c(C#N)c3)c2o1 [Compound 484, 4-{7-[3-Cyano-4-(1-methyl-azetidin-3-yloxy)-phenyl]-furo[3,2-b]pyridin-2-yl}-3-methoxy-N,N-dimethyl-benzamide] | < 100 | < 100 | < 100 | – |
